Data: ChEMBL document CHEMBL1148760, “Novel generation of pH indicators for proton magnetic resonance spectroscopic imaging” (J Med Chem, 2007)

Experiments:
[1] = Dissociation constant, pKa in deuterated water solution; type: physicochemical; details: read-out: Apparent_pKa
C6 = assay: Cytotoxicity in rat C6 cells assessed as intracellular release of lactic dehydrogenase; type: functional
[2] = Dissociation constant, pKa in presence of fetal bovine serum; type: physicochemical; details: cattle, solution containing fetal bovine serum; read-out: Apparent_pKa

Compound	pKa [1]	Activity (C6) [%]	pKa [2]
OC(Cn1ccnc1)Cn1ccnc1	6.45		
O[C@@H]([C@H](O)[C@H](O)Cn1ccnc1)[C@H](O)Cn1ccnc1	7	<10	6.63
O[C@@H](Cn1ccnc1)[C@@H](O)Cn1ccnc1	6.56	<10	6.67
